Test results reported in patent US5256788A, “Moranoline derivatives and their production and the use of moranoline and its derivatives as a stabilizing agent for enzymes” (Nippon Shinyaku Co. Ltd., priority 1989, dated 1993).

What was measured:
β-glucosidase = assay: Stabilization of β-glucosidase by moranoline and N-methylmoranoline; type: biochemical; details: 6 mg/ml of the hydrochloride, kept at 60° C.
Description: Test samples were (1) 1 ml of 0.2M buffer solution of β-glucosidase (300 μg/ml) alone, (2) 1 ml of 0.2M buffer solution of β-glucosidase (300 μg/ml) supplemented with 6 mg/ml of moranoline hydrochloride and, (3) 1 ml of 0.2M buffer solution of β-glucosidase (300 μg/ml) supplemented with 6 mg/ml of N-methylmoranoline hydrochloride. These test samples were kept at 60° C. and the residual enzyme activity was measured with passage of time.
For determination of the enzyme activity, there was used a method measuring absorbancy at 400 nm using […] as a substrate.
That is, 200 μl of 0.014M p-nitrophenyl-β-D-glucoside, 200 μl of the enzyme solution taken from each sample for sampling with passage of time which was appropriately diluted, and 600 μl of 0.2M acetate buffer solution (pH 4.5) were reacted at 30° C. for 15 minutes. After 2 ml of 0.1M disodium carbonate was added thereto to terminate the reaction, a color was formed and the color was measured at 400 nm. When absorbancy at the initiation of the reaction was made 100, relative absorbancy in each time was defined to be residual activity.

glucoamylase = target: T1, glucoamylase (Rhizopus arrhizus, UniProt P07683); assay: Stabilization of GA (aqueous solution) by moranoline, N-methylmoranoline; type: biochemical, Rhizopus niveus
T1 construct: maltose substrate
Description: As the enzyme, Rhizopus niveus-derived reagent glucoamylase manufactured by Seikagaku Kogyo Co., Ltd. was used.
After 5 mg of the enzyme was dissolved in 1 ml of 0.1M acetate buffer solution (pH 5.0), moranoline and N-methylmoranoline were dissolved in the solution in a concentration of 6000 μg/ml. The solution was charged in a test tube with a screw stopper followed by incubation at 50° C. Each enzyme solution was diluted with 0.1M acetate buffer solution (pH 5.0) to 100-fold and 100 μl of the dilution was taken. After 400 μl of 5% maltose solution (0.05M acetate buffer solution, pH 4.6) was added thereto, the mixture was reacted at 40° C. for 20 minutes. […] Thereafter, the system was ice cooled and absorbency was measured at 500 nm to determine the glucose amount. […] When the initial enzyme activity (amount of glucose produced) was made […], relative enzyme activity was determined. […]
After 5 mg of the enzyme was dissolved in 1 ml of 0.1M acetate buffer solution (pH 5.0), moranoline and N-methylmoranoline were dissolved in the solution in a concentration of 6000 μg/ml. […] Thereafter, the system was ice cooled and absorbancy was measured at 500 nm to determine the glucose amount. […] When the initial enzyme activity (amount of glucose produced) was made 100, relative enzyme activity was determined. […]

immobilized CGTase = target: T2, immobilized CGTase (Geobacillus stearothermophilus, UniProt P31797); assay: Stabilization of immobilized CGTase, sugar transfer continuous reaction of N-methylmoranoline; type: biochemical, Bacillus stearothermophilus; details: 3360 h; after 140 days, 55° C., 1.5 w/v% N-methylmoranoline and 9 w/v% soluble starch, 160 ml/day; read-out: activity retained
T2 construct: purchased Hayashibara Biochemical Research Institute
T2 sequence (P31797 32-711): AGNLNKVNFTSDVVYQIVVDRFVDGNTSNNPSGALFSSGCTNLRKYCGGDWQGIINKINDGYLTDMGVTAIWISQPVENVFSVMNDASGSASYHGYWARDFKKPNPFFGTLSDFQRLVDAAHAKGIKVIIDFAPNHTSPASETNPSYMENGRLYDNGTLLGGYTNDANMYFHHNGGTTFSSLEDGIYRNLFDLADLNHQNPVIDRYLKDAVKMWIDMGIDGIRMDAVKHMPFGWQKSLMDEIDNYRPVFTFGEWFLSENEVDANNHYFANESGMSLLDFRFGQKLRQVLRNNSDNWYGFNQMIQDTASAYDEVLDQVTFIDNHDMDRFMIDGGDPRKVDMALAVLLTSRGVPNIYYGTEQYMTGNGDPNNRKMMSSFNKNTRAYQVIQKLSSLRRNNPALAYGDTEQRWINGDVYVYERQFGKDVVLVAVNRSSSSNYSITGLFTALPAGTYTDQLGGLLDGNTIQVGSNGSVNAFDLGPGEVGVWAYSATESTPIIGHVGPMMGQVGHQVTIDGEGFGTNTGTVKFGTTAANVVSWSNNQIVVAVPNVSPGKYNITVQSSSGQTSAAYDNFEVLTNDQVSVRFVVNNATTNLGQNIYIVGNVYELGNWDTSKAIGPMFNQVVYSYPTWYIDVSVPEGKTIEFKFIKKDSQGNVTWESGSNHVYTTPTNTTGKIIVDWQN
Description: (§1) The immobilized CGTase, 20 ml, obtained in Reference Example 1 was packed in a column having a diameter of 1 cm equipped with a jacket and a solution with the pH being not adjusted containing 1.5 w/v% of N-methylmoranoline and 9 w/v% of soluble starch was continuously passed through the column at 55° C. in a passing velocity of 160 ml/day to react them, whereby the reaction progress rate of the passing liquid was determined with passage of time. The reaction progress rate and activity retention rate were determined in a manner similar to Reference 4. The results reveal that even after 140 days, almost 100% of the activity was retained.
as §1, with “Example A” for “Example 1”, “to Example 27.” for “to Reference 4. The results reveal that even after 140 days, almost 100% of the activity was retained.”

T1 sequence (P07683 26-604): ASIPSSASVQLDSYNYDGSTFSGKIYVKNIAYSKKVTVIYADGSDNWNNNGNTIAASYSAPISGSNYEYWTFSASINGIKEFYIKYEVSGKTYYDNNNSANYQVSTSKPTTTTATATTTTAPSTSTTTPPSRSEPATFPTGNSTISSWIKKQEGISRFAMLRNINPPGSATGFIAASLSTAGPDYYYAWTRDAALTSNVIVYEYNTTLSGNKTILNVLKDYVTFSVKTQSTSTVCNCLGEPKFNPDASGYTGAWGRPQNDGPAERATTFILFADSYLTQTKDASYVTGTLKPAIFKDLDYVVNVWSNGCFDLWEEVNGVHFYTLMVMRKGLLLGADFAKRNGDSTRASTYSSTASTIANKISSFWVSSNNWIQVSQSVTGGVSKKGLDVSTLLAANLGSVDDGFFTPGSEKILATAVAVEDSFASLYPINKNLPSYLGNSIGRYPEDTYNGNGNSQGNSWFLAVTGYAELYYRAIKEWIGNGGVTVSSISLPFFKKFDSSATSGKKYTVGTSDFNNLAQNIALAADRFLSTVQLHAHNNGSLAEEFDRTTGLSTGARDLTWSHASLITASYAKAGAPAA

CN1C[C@H](O)[C@@H](O)[C@H](O)[C@H]1CO [N-methylmoranoline]
stabilizing effect (residual activity, FIG. 4) (β-glucosidase): stabilizing effect | inhibition of the enzyme activity of glucoamylase (glucoamylase): inhibit the enzyme activity of glucoamylase | activity at 15000 µg/mL (immobilized CGTase): ~100%
